The subject of data set [1] is human prostate carcinoma (PC-3) cell line. As to the kind of experiment: MTT cell viability assay, PC-3 cells. Type of data set: cell-based. To be noted: prostate cancer cell line PC-3, treatment for 24 h (table title), means of three experiments, read-out: IC50 (μM* ± SD) PC-3. On the procedure:
(§1) Human bladder cancer (T-24) and human prostate carcinoma (PC-3) cell lines were obtained from American Type Culture Collection (ATCC; Manassas, VA USA). Cells were maintained in Dulbecco’s modified Eagle medium with 10% foetal bovine serum at 37 °C and 5% CO2. All the operations were carried out under strict aseptic conditions. The culture medium was removed to a centrifuge tube containing 9.0 ml complete culture medium and spanned at approximately 125 × g for 5 to 7 min. The cell layer was rinsed with 0.25% (w/v) trypsin- […] EDTA solution by which all traces of serum-containing inhibitor were removed. Trypsin EDTA solution 2.0 to 3.0 ml was added to a flask and cells were monitored under an inverted microscope until the cell layer was dispersed (usually within 5–15 min). A complete growth medium was added (6.0–8.0 ml), and cells were aspirated by gentle pipetting. The cell pellet was suspended with the recommended complete medium and dispensed into a 75 cm^2 culture flask. The culture vessel containing the complete growth medium was placed in the incubator for 24 h to at 37 °C. The cells were treated with different concentrations (0.39, 1.60, 6.25, 25, and 100 μg/ml) of each of the test compounds or doxorubicin, […], then the plates were examined under the inverted microscope and finally the MTT assay was carried out.
(§2) Anti-cancer activity of the newly synthesised compounds was evaluated in vitro against both T-24 and PC-3 cell lines according to the MTT method. Cells were seeded into 96-well plates (flat bottom) at a density of 10 000 cells/well for 24 h. The vial of MTT to be used was reconstituted with 3 ml of medium or balanced salt solution without phenol red and serum. then, a reconstituted MTT vial was added in an amount equal to 10% of the culture medium volume. Cultures were incubated for 2–4 h depending on the cell type and maximum cell density and removed from the incubator and the formazan crystals were dissolved via the addition of an amount of MTT solubilisation solution (M-8910) equal to the original culture medium volume. ROBONIK P2000 spectrophotometer at a wavelength of 570 nm was used to measure the colour intensity spectrophotometrically. The survival curve of both T-24 and PC-3 cells was obtained by plotting the percentage of surviving cells against the drug after each compound. The IC50 value for each test compound and the reference drug doxorubicin was calculated.
(§3) In this study, all the newly synthesised CP derivatives were subjected to anticancer activity evaluation against bladder (T-24) and prostate cancer (PC-3) cell lines. The compounds were evaluated for their activity using 5 doses determinations (100 μg/ml, 25 μg/ml, 6.25 μg/ml, 1.60 μg/ml, and 0.39 μg/ml). Their half-maximal inhibitory concentration (IC50) values were measured. Doxorubicin was chosen as a reference anticancer drug[65].
(Tetrazolium dyes change colour on reduction, which living cells bring about.)

Data set [2] has as its system Human bladder cancer (T-24) cell line. As to the kind of experiment: MTT cell viability assay, T-24 cells. As to conditions: bladder cancer cell line T-24, treatment for 24 h (table title), means of three experiments, read-out: IC50 (μM* ± SD) T-24. Type of data set: cell-based. On the procedure: as §1, §2, §3
Data set [3] addresses T1, human DNA Topo II (Homo sapiens, UniProt P11388).
T1 construct: purchased USB Corp., USA
As to the kind of experiment: In vitro DNA Topo II-mediated relaxation assay (supercoiled pBR322). It counts as biochemical. As to conditions: for IC50: means of three experiments, read-out: Topo II IC50 (µM*±SD); for inhibition at 0.1 µM / inhibition at 1 µM / inhibition at 10 µM / inhibition at 100 µM: recombinant Topo II relaxation; for inhibition at 0.1 µM: compound at 0.1 μM, read-out: Percentage of inhibition of Topo II, 0.1 μM; for inhibition at 1 µM: compound at 1 μM, read-out: Percentage of inhibition of Topo II, 1 μM; for inhibition at 10 µM: compound at 10 μM, read-out: Percentage of inhibition of Topo II, 10 μM; for inhibition at 100 µM: compound at 100 μM, read-out: Percentage of inhibition of Topo II, 100 μM. On the procedure: DNA Topo II inhibitory activities of the targeted compounds were measured as follows. A mixture of 100 ng of supercoiled pBR322 plasmid DNA (Fermentas, USA) and 2 units of human DNA Topo II (USB Corp., USA) was incubated with and without the prepared compounds in the assay buffer (10 µM Tris-HCl pH 7.9) containing 50 µM NaCl, 4 µM MgCl2, 1 µM EDTA, 1 µM ATP, and 15 mg/ml bovine serum albumin for 30 min at 37 °C. The reaction in a final volume of 10 µl was terminated by the addition of 4 µl of 6 µM EDTA. DNA samples were then electrophoresed on 1% agarose gel containing 0.5 µg/ml ethidium bromide in gel and buffer at high voltage (100–250 v) until the dye front has migrated about 4–6 cm down the gel. with a running buffer of TAE Tris-acetate– EDTA (TAE). Gels were stained for 15 min in water. DNA bands were visualised by transillumination with UV light and quantitated using AlphaI-maker TM (Alpha Innotech Corporation).
Well-known Topo II inhibitor doxorubicin was used as a positive control. The reaction products of Topo II relaxation assays were analysed by electrophoretic mobility and developed in ethidium bromide in the presence of UV light. The inhibitory activities were evaluated at 4 concentrations of 100, 10, 1, and 0.1 μM for all compounds as shown in (Figure 6). Topo II inhibitory activities of the tested compounds are summarised in (Table 2).

In data set [4] the test system is active caspase-3. As to the kind of experiment: Active caspase-3 ELISA in T-24 cells. It counts as cell-based, human. As to conditions: 6 at 5.68 μM, 8a at 3.36 μM, means of three experiments. On the procedure:
The level of the apoptotic marker caspase-3 was measured using The Invitrogen Caspase-3 (active) Human ELISA Kit. The procedure of the used kit was done according to the manufacturer’s instructions.
Caspase-3 (a key effector enzyme) plays an important role in apoptosis since its activation leads to catalysing specific enzymes responsible for DNA fragmentation, which leads to cell death. Apoptosis induction in T-24 cells by compounds 6 and 8a was investigated via caspase 3, compared to doxorubicin as a reference drug.
(An ELISA detects its analyte on a solid surface through an enzyme-linked reagent.)

The values that follow come from article PMC9635472, “Design, synthesis, and biological evaluation of novel ciprofloxacin derivatives as potential anticancer agents targeting topoisomerase II enzyme” (Journal of Enzyme Inhibition and Medicinal Chemistry, 2022).

T1 sequence (P11388 whole entry): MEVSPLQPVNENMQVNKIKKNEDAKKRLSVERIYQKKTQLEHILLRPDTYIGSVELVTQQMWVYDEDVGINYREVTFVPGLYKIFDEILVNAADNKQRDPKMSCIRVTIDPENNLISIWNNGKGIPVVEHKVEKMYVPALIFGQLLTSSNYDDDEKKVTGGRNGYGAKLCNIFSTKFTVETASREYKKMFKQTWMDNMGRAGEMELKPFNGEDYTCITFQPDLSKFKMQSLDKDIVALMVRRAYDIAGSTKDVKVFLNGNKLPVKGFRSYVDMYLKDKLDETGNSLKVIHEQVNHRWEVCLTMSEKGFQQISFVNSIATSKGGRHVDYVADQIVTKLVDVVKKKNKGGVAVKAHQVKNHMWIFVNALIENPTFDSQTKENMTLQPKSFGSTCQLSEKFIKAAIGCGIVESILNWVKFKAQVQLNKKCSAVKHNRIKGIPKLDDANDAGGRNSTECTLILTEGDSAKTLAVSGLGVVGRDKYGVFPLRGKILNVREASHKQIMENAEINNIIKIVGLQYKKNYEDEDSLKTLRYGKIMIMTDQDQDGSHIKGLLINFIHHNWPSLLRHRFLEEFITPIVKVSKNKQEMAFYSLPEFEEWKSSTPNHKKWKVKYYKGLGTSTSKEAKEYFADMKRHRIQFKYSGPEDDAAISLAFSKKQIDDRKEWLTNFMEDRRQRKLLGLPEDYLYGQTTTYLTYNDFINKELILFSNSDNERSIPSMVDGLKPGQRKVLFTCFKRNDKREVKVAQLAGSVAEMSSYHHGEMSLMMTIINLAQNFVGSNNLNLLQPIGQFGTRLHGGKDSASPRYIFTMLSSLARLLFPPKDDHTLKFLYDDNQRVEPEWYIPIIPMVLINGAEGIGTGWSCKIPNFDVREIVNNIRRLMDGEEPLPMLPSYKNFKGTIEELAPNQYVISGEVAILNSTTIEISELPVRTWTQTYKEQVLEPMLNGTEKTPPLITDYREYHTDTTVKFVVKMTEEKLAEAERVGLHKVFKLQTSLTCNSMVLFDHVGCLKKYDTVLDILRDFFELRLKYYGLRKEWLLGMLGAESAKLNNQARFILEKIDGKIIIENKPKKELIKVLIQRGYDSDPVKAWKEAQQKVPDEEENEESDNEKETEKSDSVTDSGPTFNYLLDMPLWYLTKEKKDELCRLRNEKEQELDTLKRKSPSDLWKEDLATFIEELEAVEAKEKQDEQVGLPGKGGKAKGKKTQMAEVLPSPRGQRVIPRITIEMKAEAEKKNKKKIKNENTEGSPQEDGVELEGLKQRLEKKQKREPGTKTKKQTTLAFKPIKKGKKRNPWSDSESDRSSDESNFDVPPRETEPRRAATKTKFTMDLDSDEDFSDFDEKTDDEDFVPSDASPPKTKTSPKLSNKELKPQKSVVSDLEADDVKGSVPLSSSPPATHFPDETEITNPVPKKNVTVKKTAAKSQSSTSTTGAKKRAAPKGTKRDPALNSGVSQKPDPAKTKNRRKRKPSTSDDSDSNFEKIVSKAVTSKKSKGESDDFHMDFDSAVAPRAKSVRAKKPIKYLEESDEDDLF

For the compound `O=C(CN1CCN(c2cc3c(cc2F)c(=O)c(C(=O)O)cn3C2CC2)CC1)NN=C1CCCCC1` [Compound 7a, 7-(4-(2-(2-Cyclohexylidenehydrazinyl)-2-oxoethyl)piperazin-1-yl)-1-cyclopropyl-6-fluoro-4-oxo-1,4-dihydroquinoline-3-carboxylic acid], the melting point lay in the range of 256 to 258 °C. The IC50 in data set [1] was 9.35 ± 0.48 µM. Also, in data set [2], the IC50 turned out to be 3.88 ± 0.21 µM. Moreover, in data set [3], the IC50 amounted to 4.99 ± 0.27 µM, the inhibition at 0.1 µM is 13.7%, the inhibition at 1 µM was 27.9% and the inhibition at 10 µM was 55.9%. For the same compound, the inhibition at 100 µM in data set [3] was determined as 83.6%.
For `CC(=NNC(=O)CN1CCN(c2cc3c(cc2F)c(=O)c(C(=O)O)cn3C2CC2)CC1)c1ccc(Cl)cc1` [Compound 7b, 7-(4-(2-(2-(1-(4-Chlorophenyl)ethylidene)hydrazinyl)-2-oxoethyl)-piperazin-1-yl)-1-cyclopropyl-6-fluoro-4-oxo-1,4-dihydroquinoline-3-carboxylic acid], the melting point was in the range of 178 to 180 °C. Besides, the IC50 in data set [1] worked out at 19 ± 0.96 µM. In addition, the IC50 in data set [2] worked out at 11.5 ± 0.63 µM. Besides, in data set [3], the IC50 is 3.34 ± 0.18 µM, the inhibition at 0.1 µM was found to be 18.4%, the inhibition at 1 µM turned out to be 34% and the inhibition at 10 µM came out at 60.3%. Besides, the inhibition at 100 µM in data set [3] was found to be 85.2%.
`O=C(CN1CCN(c2cc3c(cc2F)c(=O)c(C(=O)O)cn3C2CC2)CC1)NNC(=O)Nc1ccc(Cl)c(C(F)(F)F)c1` [Compound 9a, 7-(4-(2-(2-((4-Chloro-3-(trifluoromethyl)phenyl)carbamoyl)-hydrazinyl)-2-oxoethyl)piperazin-1-yl)-1-cyclopropyl-6-fluoro-4-oxo-1,4-dihydroquinoline-3-carboxylic acid] had a melting point of 186 to 188 °C. Besides, in data set [1], the IC50 is 67.2 ± 3.42 µM. In data set [2], the IC50 turned out to be 4.35 ± 0.24 µM. Moreover, in data set [3], the IC50 was 2.58 ± 0.14 µM, the inhibition at 0.1 µM was 23.6%, the inhibition at 1 µM was 40.3% and the inhibition at 10 µM turned out to be 57%. Also, in data set [3], the inhibition at 100 µM came to 86.5%.
Take `O=C(CN1CCN(c2cc3c(cc2F)c(=O)c(C(=O)O)cn3C2CC2)CC1)NNCC(=O)c1ccc([N+](=O)[O-])cc1` [Compound 10c, 1-Cyclopropyl-6-fluoro-7-(4-(2-(2-(2-(4-nitrophenyl)-2-oxoethyl)-hydrazinyl)-2-oxoethyl)piperazin-1-yl)-4-oxo-1,4-dihydroquinoline-3-carboxylic acid]: the melting point was 221 to 223 °C. Also, the IC50 in data set [1] stood at 3.25 ± 0.167 µM. Also, the IC50 in data set [2] worked out at 10.1 ± 0.55 µM. Moreover, in data set [3], the IC50 was 1.69 ± 0.09 µM, the inhibition at 0.1 µM came to 24.8%, the inhibition at 1 µM came to 37.7% and the inhibition at 10 µM was determined as 72.6%. Further, the inhibition at 100 µM in data set [3] is 90.2%.
As for `COc1cccc2c1C(=O)c1c(O)c3c(c(O)c1C2=O)C[C@@](O)(C(=O)CO)C[C@@H]3O[C@H]1C[C@H](N)[C@H](O)[C@H](C)O1` [Doxorubicin, reference compound], the IC50 stood at 23.1 ± 1.18 µM in data set [1], 29.1 ± 1.56 µM in data set [2] and 1.72 ± 0.08 µM in data set [3]. The “Caspase-3 conc. (pg/ml* ± SD)” value in data set [4] was found to be 598.8 ± 8.63 pg/mL.

In general, IC50 refers to the point on the concentration scale where inhibition reaches its midpoint. The inhibition is the change of the read-out against control, counted positive when it falls. What is called melting point is the temperature of the solid-liquid transition.
